Test results reported in patent US11674123B2, “Generating arterial endothelial cell populations” (Wisconsin Alumni Research Foundation, priority 2015, dated 2023).
“Also recorded” adds a separate entry of the source.

B1: WNT3A: recombinant protein, Wnt signaling factor added to medium (protein, UniProt P56704 19-352, looked up)
Protein Wnt-3a: SYPIWWSLAVGPQYSSLGSQPILCASIPGLVPKQLRFCRNYVEIMPSVAEGIKIGIQECQHQFRGRRWNCTTVHDSLAIFGPVLDKATRESAFVHAIASAGVAFAVTRSCAEGTAAICGCSSRHQGSPGKGWKWGGCSEDIEFGGMVSREFADARENRPDARSAMNRHNNEAGRQAIASHMHLKCKCHGLSGSCEVKTCWWSQPDFRAIGDFLKDKYDSASEMVVEKHRESRGWVETLRPRYTYFKVPTERDLVYYEASPNFCEPNPETGSFGTRDRTCNVSSHGIDGCDLLCCGRGHNARAERRREKCRCVFHWCCYVSCQECTRVYDVHTCK
B2: PDGF-BB: platelet derived growth factor BB (protein, UniProt P01127 82-190, looked up)
Platelet-derived growth …: SLGSLTIAEPAMIAECKTRTEVFEISRRLIDRTNANFLVWPPCVEVQRCSGCCNNRNVQCRPTQVQLRPVQVRKIEIVRKKPIFKKATVTLEDHLACKCETVAAARPVT
modifications: homodimer

Experiments:
Assay type in all cases: cell-based, human
[1] = test system: EFNB2-tdTomato/EPHB4-EGFP dual reporter cells (H1 ES cells); test: Arterial endothelial differentiation of EFNB2-tdTomato/EPHB4-EGFP dual reporter cells, flow cytometry; settings: for arterial endothelial cell differentiation (EFNB2-tdTomato high/EPHB4-EGFP low cells), factor added: added day 2 to day 6 to E5 + 50 ng/ml VEGFA + 10 μM SB431542, 5 μM L690, 5 μg/ml LDL, 100 ng/ml PDGF-BB, FIGS. 3E-3F; for EFNB2-tdTomato high/EPHB4-EGFP low cells, factor removed from five factors medium: individual removal, FIGS. 4A-4B; for arterial endothelial differentiation of human pluripotent stem cells (conclusion after FACS sorting and RT-qPCR): summary statement; for arterial specification (EFNB2-tdTomato and EPHB4-EGFP expression), factor added singly: added to Control medium (E5+100 ng/ml FGF2+10 μM SB431542): 50 ng/ml VEGF, 5 μM RESV or 50 ng/ml WNT3A, FIG. 11; for arterial differentiation (EFNB2-tdTomato high/EPHB4-EGFP low cells), factor removed: factor removed from the medium after mesoderm formation, day 2 to day 6, FIGS. 3A-3F; for EFNB2-tdTomato high/EPHB4-EGFP low cells / arterial differentiation, factor added to five factors medium: 100 ng/ml PDGF-BB or exogenous WNT3A, FIGS. 4A-4F, FIG. 9
Experimental: (A) Flow cytometric analysis of EFNB2-tdTomato and EPHB4-EGFP expression on CD31 and CD144 gated endothelial cells. EFNB2-tdTomato/EPHB4-EGFP dual reporter cells (hetero knock-in in H1 cells for each gene) were first differentiated into mesoderm cells by E8BAC medium (E8 medium supplemented with BMP4, Activin-A, and CHIR99021). E5 (E8 medium minus FGF2, TGFβ1, and insulin) medium supplemented with 100 ng/ml FGF2, 50 ng/ml VEGFA, and 50 ng/ml BMP4 was used to induce mesoderm cells to differentiate into endothelial cells from day 2 to day 6. Either Insulin (20 μg/ml) or Ly294002 (16 μM, a PI3K inhibitor) was added to the medium as indicated from day 2 to day 6. (B) Statistics of EFNB2-tdTommato^high/EPHB4-EGFP^low cells. […] (C) Western blots showing AKT activity. Protein was harvested at day 3. (D) Flow cytometric analysis of EFNB2-tdTomato and EPHB4-EGFP expression on CD31 and CD144 gated endothelial cells. E5 medium supplemented with 50 ng/ml VEGFA, 50 ng/ml BMP4 or 10 μM SB431542 was used to induce mesoderm cells to differentiate into endothelial cells from day 2 to day 6. (E) Flow cytometric analysis of EFNB2-tdTomato and EPHB4-EGFP expression on CD31 and CD144 gated endothelial cells. ES cells were first differentiated into mesoderm cells as mentioned above. E5 medium supplemented with 50 ng/ml VEGFA and 10 μM SB431542 was used as the base medium induce mesoderm cells to differentiate into endothelial cells from day 2 to day 6. Other factors were added to the base medium as indicated. (F) Statistics of EFNB2-tdTomato^high/EPHB4-EGFP^low cells. […] FIGS. 4A-4H present flow cytometric analysis of expression of EphrinB2 and Ephrin Type B Receptor 4 reporter constructs (EFNB2-tdTomato and EPHB4-EGFP) on CD31- and CD144-gated endothelial cells obtained after differentiation in various medium, as described. FIG. 4B illustrates the percentage of arterial endothelial cells (AEC) (EFNB2-tdTomato^high/EPHB4-EGFP^low) obtained after differentiation in the various medium conditions of FIG. 4A. Data are represented as mean±SD. […] FIG. 4D illustrates the percentage of CXCR4^+CD144^+ arterial endothelial cells obtained after differentiation in the various medium conditions of FIG. 4C. […] FIG. 4F illustrates the percentage of DLL4^+CD144^+ arterial endothelial cells obtained after differentiation in the various medium conditions of FIG. 4E. 5 μM L-690,330 (a bisphosphonate inhibitor of inositol monophosphatase), and 100 ng/ml PDGF-BB (platelet derived growth factor BB) were used. […] FIGS. 11A-11C present arterial endothelial cell differentiation data. (A) Schematic of arterial endothelial cell differentiation protocol. ES cells were first differentiated into mesoderm cells by E8BAC medium (E8 medium supplemented with 5 ng/ml BMP4, 25 ng/ml Activin A, and 1 μM CHIR99021). E5 (E8 medium minus FGF2, TGFβ1, and insulin) medium supplemented with 100 ng/ml FGF2 and 10 μM SB431542 was then used to induce mesoderm cells to differentiate into endothelial cells. (B) Flow cytometric analysis of CD31 and CD34 expression. E5+100 ng/ml FGF2+10 μM SB431542 medium (“Control”) supplemented with 50 ng/ml VEGF, 5 μM RESV (resveratrol, a Notch activator), or 50 ng/ml WNT3A was used to induce mesoderm cells to differentiate into arterial endothelial cells. (C) Flow cytometric analysis of EFNB2-tdTomato and EPHB4-EGFP expression.

[2] = test system: CXCR4+CD144+ and DLL4+CD144+ arterial endothelial cells; test: Flow cytometry of CXCR4/CD144 and DLL4/CD144 on differentiated endothelial cells; settings: FIGS. 4C-4F; for CXCR4 and DLL4 (CD144+CXCR4+ and CD144+DLL4+ cells), factor removed from five factors medium: individual removal
Description: FIGS. 4A-4H present flow cytometric analysis of expression of EphrinB2 and Ephrin Type B Receptor 4 reporter constructs (EFNB2-tdTomato and EPHB4-EGFP) on CD31- and CD144-gated endothelial cells obtained after differentiation in various medium, as described. FIG. 4B illustrates the percentage of arterial endothelial cells (AEC) (EFNB2-tdTomato^high/EPHB4-EGFP^low) obtained after differentiation in the various medium conditions of FIG. 4A. Data are represented as mean±SD. […] FIG. 4D illustrates the percentage of CXCR4^+CD144^+ arterial endothelial cells obtained after differentiation in the various medium conditions of FIG. 4C. […] FIG. 4F illustrates the percentage of DLL4^+CD144^+ arterial endothelial cells obtained after differentiation in the various medium conditions of FIG. 4E. 5 μM L-690,330 (a bisphosphonate inhibitor of inositol monophosphatase), and 100 ng/ml PDGF-BB (platelet derived growth factor BB) were used. […] Arterial endothelial cell differentiation and expansion: It took six days for AECs differentiation. From day 0 to day 2, human ES/iPS cells were first differentiated into mesoderm cells as mentioned above. From day 2 to day 6, E5 medium was used and growth factors or small molecules were added as indicated. With the combination of “five factors,” AECs were induced by E5 medium supplemented with 100 ng/ml FGF, 50 ng/ml VEGF, 10 μM SB431542, 5 μM RESV, and 10 μM […] from day 2 to day 6.

AKT = test: Western blot of AKT activity (pAKT) during differentiation; settings: protein harvested at day 3, insulin 20 μg/ml, Ly294002 16 μM, FIG. 3C
Experimental: FIGS. 3A-3F present candidate pathways critical for arteriovenous specification. (A) Flow cytometric analysis of EFNB2-tdTomato and EPHB4-EGFP expression on CD31 and CD144 gated endothelial cells. EFNB2-tdTomato/EPHB4-EGFP dual reporter cells (hetero knock-in in H1 cells for each gene) were first differentiated into mesoderm cells by E8BAC medium (E8 medium supplemented with BMP4, Activin-A, and CHIR99021). E5 (E8 medium minus FGF2, TGFβ1, and insulin) medium supplemented with 100 ng/ml FGF2, 50 ng/ml VEGFA, and 50 ng/ml BMP4 was used to induce mesoderm cells to differentiate into endothelial cells from day 2 to day 6. Either Insulin (20 μg/ml) or Ly294002 (16 μM, a PI3K inhibitor) was added to the medium as indicated from day 2 to day 6. (B) Statistics of EFNB2-tdTommato^high/EPHB4-EGFP^low cells. Data are represented as mean±SD. *: P<0.05, n=5. (C) Western blots showing AKT activity. Protein was harvested at day 3. (D) Flow cytometric analysis of EFNB2-tdTomato and EPHB4-EGFP expression on CD31 and CD144 gated endothelial cells. E5 medium supplemented with 50 ng/ml VEGFA, 50 ng/ml BMP4 or 10 μM SB431542 was used to induce mesoderm cells to differentiate into endothelial cells from day 2 to day 6. (E) Flow cytometric analysis of EFNB2-tdTomato and EPHB4-EGFP expression on CD31 and CD144 gated endothelial cells. ES cells were first differentiated into mesoderm cells as mentioned above. […]

Molecule | arterial endothelial cell differentiation (EFNB2-tdTomato high/EPHB4-EGFP low cells), factor added [1] | EFNB2-tdTomato high/EPHB4-EGFP low cells, factor removed from five factors medium [1] | arterial endothelial differentiation of human pluripotent stem cells (conclusion after FACS sorting and RT-qPCR) [1] | CXCR4 and DLL4 (CD144+CXCR4+ and CD144+DLL4+ cells), factor removed from five factors medium [2] | also measured
CC(Oc1ccc(O)cc1)(P(=O)(O)O)P(=O)(O)O [L-690,330, reference compound] | increased arterial endothelial cell differentiation | fewer | promote arterial endothelial differentiation | no reduction | –
Oc1ccc(C=Cc2cc(O)cc(O)c2)cc1 [RESV, 3,4′,5-trihydroxystilbene, reference compound] | – | decrease | – | – | arterial specification (EFNB2-tdTomato and EPHB4-EGFP expression), factor added singly [1]: promoted increased arterial specification
NC(=O)c1ccc(-c2nc(-c3ccc4c(c3)OCO4)c(-c3ccccn3)[nH]2)cc1 [SB431542, reference compound] | – | decrease | – | decreased | arterial differentiation (EFNB2-tdTomato high/EPHB4-EGFP low cells), factor removed [1]: inhibited arterial differentiation
FGF2: human fibroblast growth factor 2 | increased arterial endothelial cell differentiation | decrease | promote arterial endothelial differentiation | decreased | –
TGF-β | – | – | inhibit arterial endothelial differentiation | – | –
insulin: insulin, medium component, activates AKT | – | – | inhibit arterial endothelial differentiation | – | Phosphorylated AKT (pAKT) (AKT): increased; arterial differentiation (EFNB2-tdTomato high/EPHB4-EGFP low cells), factor removed [1]: triggered AEC differentiation
B1 | – | – | – | – | EFNB2-tdTomato high/EPHB4-EGFP low cells / arterial differentiation, factor added to five factors medium [1]: did not further increase arterial differentiation; arterial specification (EFNB2-tdTomato and EPHB4-EGFP expression), factor added singly [1]: promoted increased arterial specification; also recorded: promoted arterial differentiation
B2 | inhibited arterial differentiation | – | inhibit arterial endothelial differentiation | – | EFNB2-tdTomato high/EPHB4-EGFP low cells / arterial differentiation, factor added to five factors medium [1]: fewer; CD144+CXCR4+ and CD144+DLL4+ cells, factor added to five factors medium ([2]; 100 ng/ml PDGF-BB): no reduction
